Values joined by “and” are separate entries in the source; they are usually repeats but may differ in a detail not shown here. Equal entries are not always repeated.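 Protocol summary: plate cells (96-well), add compound at 5 concentrations, incubate 48 h, interpolate endpoints linearly. Abbreviation: GI50, concentration required for 50% inhibition of growth. TGI is the concentration that stops growth completely.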
Assays:
Experiment in all cases: NCI anticancer screen, dose series, 48 h
TK-10 renal = tested on: TK-10 renal
U251 CNS = tested on: U251 CNS
SK-MEL-5 melanoma = tested on: SK-MEL-5 melanoma
SF-268 CNS = tested on: SF-268 CNS
IGROV1 ovarian = tested on: IGROV1 ovarian
SN12C renal = tested on: SN12C renal
M14 melanoma = tested on: M14 melanoma
A549 NSCLC = tested on: A549 NSCLC
ACHN renal = tested on: ACHN renal
RXF 393 renal = tested on: RXF 393 renal

| SMILES | GI50 (TK-10 renal) [µM] | TGI (TK-10 renal) | GI50 (U251 CNS) | TGI (U251 CNS) | GI50 (SK-MEL-5 melanoma) | TGI (SK-MEL-5 melanoma) | GI50 (SF-268 CNS) [µM] | TGI (SF-268 CNS) | GI50 (IGROV1 ovarian) [µM] | TGI (IGROV1 ovarian) | GI50 (SN12C renal) [µM] | TGI (SN12C renal) | GI50 (M14 melanoma) [µM] | TGI (M14 melanoma) | GI50 (A549 NSCLC) [µM] | TGI (A549 NSCLC) [µM] | GI50 (ACHN renal) [µM] | TGI (ACHN renal) | GI50 (RXF 393 renal) | TGI (RXF 393 renal) |
| --- | --- | --- | --- | --- | --- | --- | --- | --- | --- | --- | --- | --- | --- | --- | --- | --- | --- | --- | --- | --- |
| Cc1[nH]c(=O)[nH]c(=O)c1CO | > 100 | > 100 µM | > 100 µM | > 100 µM | > 100 µM | > 100 µM | > 100 | > 100 µM | > 100 | > 100 µM | > 100 | > 100 µM | > 100 | > 100 µM | > 100 | > 100 | > 100 | > 100 µM | > 100 µM | > 100 µM |
| CCOC(=O)c1c(C(F)(F)F)n([O-])c2ccc(OC)cc2[n+]1=O | 9.68 | > 100 µM | 4.31 µM | > 100 µM | 1.7 µM | 3.31 µM | 4.65 | 72.5 µM | 4.69 | 26.5 µM | 2.84 | 22.2 µM | 3.75 | 24.6 µM | 8.57 | > 100 | 4.09 | 40.2 µM | 23.8 µM | > 100 µM |
| CCC(=C/[C@H](C)C/C=C/C(C)=C/[C@@H](C)C(=O)[C@@H](C)[C@H](O)[C@@H](C)CC)/C=C/[C@H]1OC(=O)C=C[C@H]1C | < 0.01 | 1.52 µM | < 0.01 µM | 1.35 µM | < 0.01 µM | 0.0437 µM | < 0.01 | 1.46 µM | < 0.01 | 1.27 µM | < 0.01 | 1.36 µM | < 0.01 | 0.132 µM | < 0.01 | 1.93 | < 0.01 | 1.37 µM | < 0.01 µM | < 0.01 µM |
| N#Cc1cc([N+](=O)[O-])ccc1NC(=O)C(=O)C(C(=O)/C=C/c1ccccc1)C1OC(=O)c2ccccc21 (stereo not given) | – | > 100 µM | – | > 100 µM | – | > 100 µM | – | > 100 µM | – | > 100 µM | – | > 100 µM | – | > 100 µM | – | > 100 | – | > 100 µM | – | > 100 µM |
| CCN(CC)C(=O)COc1ccc(Br)cc1Br | – | > 100 µM | – | > 100 µM | – | > 100 µM | – | > 100 µM | – | – | – | > 100 µM | – | > 100 µM | – | > 100 | – | > 100 µM | – | > 100 µM |
| COc1ccc(-c2ccc(C3CC(c4ccc(Cl)cc4)=NN3)o2)c([N+](=O)[O-])c1 (stereo not given) | > 100 | > 100 µM | > 100 µM | > 100 µM | > 100 µM | > 100 µM | > 100 | > 100 µM | > 100 | > 100 µM | – | – | > 100 | > 100 µM | > 100 | > 100 | – | – | > 100 µM | > 100 µM |
| Cn1cc(C2=C(c3cn(CCN)c4ccccc34)C(=O)NC2=O)c2ccccc21 | 6.3 | 18.8 µM | 5.61 µM | > 20.5 µM | 4.59 µM | 13 µM | 7.41 | 20.4 µM | 9.3 | > 21 µM | 5.87 | > 25 µM | 6.15 | 19.5 µM | 6.75 | > 25 | 5.47 | > 25 µM | 3.74 µM | 10.1 µM |
| CO[C@@H]1[C@H](OC(=O)NC(=O)CCl)CC[C@]2(CO2)[C@H]1[C@@]1(C)O[C@@H]1CC=C(C)C | 14.1 | 41.3 µM and 41.7 µM | 4.98 µM and 0.575 µM | 20.8 µM and 13.3 µM | 3.87 µM and 12.3 µM | 24.2 µM and 40.7 µM | 20 | 33.6 µM and 74.5 µM | – | 33 µM and 43.4 µM | 3.27 | 31.3 µM and 25.7 µM | – | 32.3 µM and 40.5 µM | 4.25 | 44.2 | 7.3 | 30.8 µM and 37.5 µM | 4.08 µM and 23.7 µM | 27.9 µM and 131 µM |
| C[C@H]1[C@H](C)CC[C@]2(C(=O)O)CC[C@]3(C)C(=CC[C@@H]4[C@@]5(C)C/C(=C/c6ccco6)C(=O)C(C)(C)[C@@H]5CC[C@]43C)[C@H]12 | 7.9 | 26.3 µM | 4.27 µM | 17 µM | 4.44 µM | 15.6 µM | 5.59 | 22.1 µM | 5.19 | 21.7 µM | 3.7 | 18.9 µM | 5.27 | 21.2 µM | 3.71 | 16.8 | 3.6 | 13.5 µM | 4.46 µM | 16.3 µM |
| O=C(COc1ccccc1)NS(=O)(=O)c1ccccc1 | – | > 100 µM | – | > 100 µM | – | – | – | > 100 µM | – | > 100 µM | – | > 100 µM | – | > 100 µM | – | > 100 | – | > 100 µM | – | > 100 µM |
| NC(=S)N/N=C1/C(=O)N(c2ccc(Cl)cc2Cl)C(=O)C(=O)C1c1nc2ccccc2s1 (stereo not given) | – | > 100 µM | – | > 100 µM | – | > 100 µM | – | > 100 µM | – | > 100 µM | – | > 100 µM | – | > 100 µM | – | – | – | > 100 µM | – | > 100 µM |
| COC(=O)C(Cl)=C1CC1 | – | > 100 µM | – | – | – | 84.9 µM | – | > 100 µM | – | > 100 µM | – | > 100 µM | – | 30.5 µM | – | > 100 | – | 49.2 µM | – | 35.8 µM |
| COc1ccccc1CNCCCN1C(=O)c2ccc3c4c(ccc(c24)C1=O)C(=O)N(CCCNCCCN)C3=O | 1.57 | 6.36 µM | 0.106 µM | 1.62 µM | 0.482 µM | 1.82 µM | 0.41 | 6.37 µM | 0.272 | 2.72 µM | – | – | 0.972 | 2.71 µM | 0.13 | 2.13 | 0.526 | 10.3 µM | 0.246 µM | 1.93 µM |
| O=c1c2ccccc2c2nc3ccccc3nc2n1C1CCCCC1 | – | > 100 µM | – | > 100 µM | – | > 100 µM | – | > 100 µM | – | > 100 µM | – | > 100 µM | – | – | – | > 100 | – | > 100 µM | – | > 100 µM |
| N#Cc1ccnc(N2C(=O)CC[C@H]2C(=O)N(c2cncc(F)c2)[C@H](C(=O)NC2CC(F)(F)C2)c2ccccc2Cl)c1 | – | – | > 100 µM | > 100 µM | > 100 µM | > 100 µM | 56.2 | > 100 µM | 44.5 | > 100 µM | 60.8 | > 100 µM | 49.1 | > 100 µM | 65.8 | > 100 | > 100 | > 100 µM | > 100 µM | > 100 µM |

Source: PubChem BioAssay (NCI)
